# From patent publication EP2832347B1, “Method for identifying patchouli odorant materials” (Takasago International Corporation, priority 2013, dated 2015)
# “And” between values parts separate entries of the source, which are not always exact repeats. Identical values can stand only once. Like-named read-outs stand apart in the source and are kept apart here.
# Tests used:
# OR11A1 [1] = target: T1, OR11A1 (Homo sapiens, UniProt Q9GZK7); conditions: Adipietro et al., PLoS Genet. 2012; cited from earlier work
# T1 construct: expressed in transfected cells; host or cells: HEKOlf (HEK293 stably expressing human Galpha-olf and bovine CNGA2)
# T1 sequence (Q9GZK7 1-315): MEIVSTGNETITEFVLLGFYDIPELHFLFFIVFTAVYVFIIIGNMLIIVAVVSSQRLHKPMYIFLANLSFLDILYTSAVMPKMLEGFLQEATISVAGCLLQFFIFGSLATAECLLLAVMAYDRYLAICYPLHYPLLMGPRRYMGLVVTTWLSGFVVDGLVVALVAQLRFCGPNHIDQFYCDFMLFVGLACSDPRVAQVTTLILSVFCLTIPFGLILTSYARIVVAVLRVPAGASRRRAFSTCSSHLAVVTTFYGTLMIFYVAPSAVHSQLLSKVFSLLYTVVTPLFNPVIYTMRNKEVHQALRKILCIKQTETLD
# OR11A1 [2] = target: T1, OR11A1; test: CRE-luciferase reporter assay in HEKOlf cells transiently transfected with OR11A1; type: cell-based; conditions: for EC50: Example 4, Table 5, 0.03-100 µM tested; for Potency and efficacy on OR11A1 (comparison between odorants): 0.1 to 100 µM (Figure 6)
# Procedure: (§1) The experiments were performed using a HEK293 cell line (deposited at the ATCC under accession n° CRL-1573) stably expressing the Gαolf G-protein and the cyclic nucleotide gated ion channel A2 subunit (CNGA2) (herein called HEKOlf). As described by Shirokova et al., 2005, the human Gαolf cDNA was cloned into the mammalian expression vector pPuro and cDNA for the bovine cyclic nucleotide gated ion channel A2 (CNGA2) subunit was cloned into the mammalian expression vector pcDNA3. Both constructs were transfected using Lipofectamine2000 (Invitrogen) following the manufacturer's instructions. Cellular clones stably expressing Gαolf and CNGA2 were obtained by antibiotic selection with 0.5µg/ml Puromycin and 200µg/ml Geneticin.
# All odorants were stored in the dark at 4°C upon delivery. They were prepared at 100mM stock solutions using DMSO as a solvent and stored at -20°C. On the day of the experiment the different stock solutions were directly diluted in the assay buffer (Tyrode's buffer) having the following composition: 5mM KCI, 130mM NaCl, 2mM CaCl2, 5mM NaHCO3, 1mM MgCl2, 20mM HEPES, pH7.4.
# (§2) All transient transfections were performed with Lipofectamine 2000 (Invitrogen) according to the manufacturer's protocol. 10µl Lipofectamine 2000 were diluted in 500 µl DMEM and incubated for 5 minutes at room temperature. At the same time, 3µg of plasmid DNA were diluted in 500µl DMEM and added to the Lipofectamine 2000 mix to obtain a final volume of 1000µl. After incubation for a further 30 minutes at room temperature, the DNA-Lipofectamine complex was added to 1000µl of a cell suspension containing 1.600.000 cells/ml. Subsequently, 25µl per well of the complete mixture were seeded in black 384 well polystyrene assay plates. 25µl DMEM containing 20% FBS were added to each well 3 hours post-transfection.
# (§3) The cDNAs for all olfactory receptors and an empty control vector were co-transfected with pGL4.29 (Promega). The pGL4.29 vector contains a cyclic adenosine monophosphate (cAMP) response element (CRE) that drives the transcription of the luciferase reporter gene luc2P (Photinus pyralis). luc2P is a synthetically-derived luciferase sequence with humanized codon optimization that is designed for high expression and reduced anomalous transcription.
# In this assay, the interaction of an odorant with its cognate olfactory receptor leads to the activation of the human Gαolf G-protein. Gαolf is a stimulatory G-protein (Gαs) and activates adenylate cyclase, which converts adenosine triphosphate (ATP) into cAMP. Therefore, the activity of the transcribed luciferase can be used as an indication of olfactory receptor activation. 24 hours post-transfection the medium was removed from the transfected cells and 30 µl Tyrode's buffer containing the diluted odorants were added and incubated for 6 hours at 37°C. The cells were then transferred into an automated fluorometric imaging plate reader (FLIPR^TETRA, Molecular Devices). Subsequently, 25µl of a mixture composed of Triton X-100 and luciferin (1:1) were added. The addition of this mixture led to cell lyses and allowed interaction of the luciferase with its substrate luciferin resulting in a detectable emission of light.
# The data obtained from different well replicates were analyzed with Excel, ScreenWorks, and SigmaPlot 10. The responses of each receptor to the odorants were divided by the mean responses of the receptor towards Tyrode's buffer (fold of change FOC1). The specificity of FOC1 was checked by comparing with a second FOC (FOC2) obtained by stimulating a control sample, consisting in an empty expression vector, with the same odorants and Tyrode's buffer. The mean and standard deviation of the resulting fold of change values were calculated and plotted in vertical bar charts or concentration-response curves fitted by the SigmaPlot 10 software.
# OR11L1 = target: T2, OR11L1 (Homo sapiens, UniProt Q8NGX0); test: CRE-luciferase reporter assay in HEKOlf cells transiently transfected with OR11L1; type: cell-based; conditions: Example 3; 10/30/100 µM
# T2 construct: expressed in transfected cells; host or cells: HEKOlf (HEK293 stably expressing human Galpha-olf and bovine CNGA2)
# T2 sequence (Q8NGX0 1-322): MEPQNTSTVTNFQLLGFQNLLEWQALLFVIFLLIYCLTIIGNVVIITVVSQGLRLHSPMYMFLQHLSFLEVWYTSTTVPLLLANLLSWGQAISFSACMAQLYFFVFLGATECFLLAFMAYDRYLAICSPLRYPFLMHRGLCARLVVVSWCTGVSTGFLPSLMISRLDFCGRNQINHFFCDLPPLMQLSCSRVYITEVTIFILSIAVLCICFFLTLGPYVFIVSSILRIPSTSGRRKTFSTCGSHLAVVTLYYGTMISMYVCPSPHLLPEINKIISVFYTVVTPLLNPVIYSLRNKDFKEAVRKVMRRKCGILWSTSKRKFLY
# Procedure: as §1
# All odorants were stored in the dark at 4°C upon delivery. […]
# (§4) In this assay, the interaction of an odorant with its cognate olfactory receptor leads to the activation of the human Gαolf G-protein. […] The cells were then transferred into an automated fluorometric imaging plate reader (FLIPR^TETRA, Molecular Devices). […]
# (§5) The data obtained from different well replicates were analyzed with Excel, ScreenWorks, and SigmaPlot 10. […] The mean and standard deviation of the resulting fold of change values were calculated and plotted in vertical bar charts or concentration-response curves fitted by the SigmaPlot 10 software. […]
# [3] = tested on: seven other OR11A1-related olfactory receptors; test: CRE-luciferase reporter assay on OR11A1 related receptors; type: cell-based, human; conditions: 10/30/100 µM
# Procedure: as §1, §2, §3
# In this assay, the interaction of an odorant with its cognate olfactory receptor leads to the activation of the human Gαolf G-protein. Gαolf is a stimulatory G-protein (Gαs) and activates adenylate cyclase, which converts adenosine triphosphate (ATP) into cAMP. Therefore, the activity of the transcribed luciferase can be used as an indication of olfactory receptor activation. […] The cells were then transferred into an automated fluorometric imaging plate reader (FLIPR^TETRA, Molecular Devices). […]
# as §5
# [4] = Long-lasting analysis on scent strip (GC-MS with internal standard); type: physicochemical; conditions: for POG (GC-MS signal), sample 1-3 / Ratio POG/IS, sample 1-3: individual scent strips, listed as POG
# Procedure: In one embodiment, the long-lasting analysis is carried out as follows: 50 µl of a 1 % solution of the identified candidate to be tested in alcohol, preferably ethanol, are applied on a scent strip, preferably a cellulosic scent strip, to be dosed. The strip is allowed to dry under ambient laboratory conditions, with normal room air movement, in particular no fan, heating or any mean or device to accelerate evaporation. After different times, each strip or at least the part of the scent strip including the area where the solution of the identified candidate to be tested was applied is extracted using 3 ml of alcohol, preferably ethanol, containing an internal standard, such as methyl decanoate. The extracts are then analyzed by gas chromatography and the result is normalized for the principal molecular ion of the identified candidate using the value for the internal standard.
# 50 µl of a 1 % solution of patchouli alcohol in ethanol was added by pipette to the tip to a series of different scent strips (SARL H. GRANGER-VEYRON, Privas, France). The strips were allowed to dry under ambient laboratory conditions.
# After different times (t0, t0+1hour, t0+2hours, t0+4hours, t0+8hours) the tip of a strip where the 50 µl of the solution of the tested material had been applied was cut and put in a 30 ml bottle and extracted using 3 ml of ethanol, containing 50 µl of methyl decanoate as internal standard (10000 ppm solution in cyclohexane), added to each bottle. Care was taken to ensure the entire area around the point of application was included in the area that was cut and extracted. The content of the bottles was mixed for 30 min on a roller bed, and 2 ml vials were then filled with each sample.
# Samples were triplicated, i.e. 3 scent strip tips were analysed for each time point.
# In a first series of experiments, samples taken at t0, t0+1hour and t0+2hours were analyzed by GC-MS on a […] gas chromatography column (column BC-WAX (50m * 0.25mm * 0.15µm) which is a GC Sciences column supplied by Interchim, Montluçon, France).
# In a second series of experiments, samples taken at t0, t0+4hours and t0+8hours were analyzed by GC-MS on a non-polar gas chromatography column (HP-5MS UI (30m * 0.25mm * 0.25µm) which is an Agilent column supplied by Chromoptic, Courtaboeuf, France).
# In Tables 6-11, PA stands for patchouli alcohol and IS stands for the internal standard, i.e. methyl decanoate. When plotting the residual concentration of patchouli on the scent strip as a function of time, the mean ratio at t0 was normalized to 100 and then t0+1h, t0+2h, t0+4h and t0+8h were calculated; t0 being defined as 2 minutes after dosing the 50 µl of the solution of the tested material, which was applied towards the tip of the scent strip.
# A "long-lasting" analysis of pogostone was performed as described in Example 5 with samples taken at t0, t0+1hour and t0+2hours.
# In Tables 12-14 herebelow, POG stands for pogostone and IS stands for the internal standard, i.e. methyl decanoate. The mean ratio at t0 was normalized as described in Example 5.
# OR7D4 = target: T3, OR7D4 (Homo sapiens, UniProt Q8NG98); test: CRE-luciferase reporter assay, positive control receptor OR7D4; type: cell-based; conditions: 10 µM
# T3 construct: expressed in transfected cells; host or cells: HEKOlf (HEK293 stably expressing human Galpha-olf and bovine CNGA2)
# T3 sequence (Q8NG98 1-312): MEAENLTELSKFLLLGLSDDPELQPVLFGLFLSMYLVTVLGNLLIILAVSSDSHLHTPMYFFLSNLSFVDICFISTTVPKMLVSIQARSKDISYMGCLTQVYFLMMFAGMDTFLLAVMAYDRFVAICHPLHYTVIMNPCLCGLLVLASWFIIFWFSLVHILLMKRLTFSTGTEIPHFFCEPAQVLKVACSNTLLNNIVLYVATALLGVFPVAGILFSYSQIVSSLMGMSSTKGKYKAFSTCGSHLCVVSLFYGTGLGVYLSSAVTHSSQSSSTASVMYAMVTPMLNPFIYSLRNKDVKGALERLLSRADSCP
# Procedure: as §1
# All transient transfections were performed with Lipofectamine 2000 (Invitrogen) according to the manufacturer's protocol. […]
# as §4, §5
# [5] = tested on: 65 human olfactory receptors; test: Screening against the set of 65 human olfactory receptors (CRE-luciferase); type: cell-based; conditions: 10 µM; including negative control receptor hTAS2R16
# Procedure: as §1, with “Geneticin. […]” for “Geneticin.”
# as §4, §5
# [6] = Example 4, 3, 10 and 30 µM (Figure 5)
compound,measurement,setting,value
CCC1(O)C2(C)CCC(C2)C1(C)C (stereo not shown) [2-ethylfenchol],activation of OR11A1,OR11A1 [1],activation of OR11A1
"CC1(C)C2CCC3(C)C4C(CCC13O)C24 (stereo not shown) [Patcho 315, 6a,7,7-trimethyldecahydro-1,4-methanocyclopropa[de]naphtalen-1-ol]",activation of OR11A1,"OR11A1 [2]; Example 3, 10/30/100 µM",strongly activated
same,EC50,OR11A1 [2],2.9 ± 0.9 µM
same,Potency and efficacy on OR11A1 (comparison between odorants),OR11A1 [2]; Example 4,highest
same,activation of OR11A1,OR11A1 [2]; [6],strongly activated
same,response in cells transfected with OR11L1,OR11L1,unable to elicit a detectable response
same,fold of change,"[3]; Example 3, figure 4",around 1
same,response of seven other OR11A1-related olfactory receptors,[3]; Example 3,none of the seven other OR11A1-related olfactory receptors responded
"Cc1cc(O)c(C(=O)CCC(C)C)c(=O)o1 [Pogostone, pogostone]",EC50,OR11A1 [2],14.8 ± 3.3 µM
same,Potency and efficacy on OR11A1 (comparison between odorants),OR11A1 [2]; Example 4,comparable
same,activation of OR11A1,OR11A1 [2]; [6],able to elicit activation
same,retained initial concentration,[4]; after 1 hour on scent strip,at least 10%
same,"POG (GC-MS signal), mean value",[4]; t0,1.11E+06
same,"Ratio POG/IS, mean value",[4]; t0,2.61E-01
same,"POG (GC-MS signal), mean value",[4]; t0+1h,9.55E+05
same,"Ratio POG/IS, mean value",[4]; t0+1h,2.08E-01
same,"POG (GC-MS signal), sample 1-3",[4]; t0+1h,1.05E+06 and 9.11E+05 and 9.09E+05
same,"Ratio POG/IS, sample 1-3",[4]; t0+1h,2.22E-01 and 1.98E-01 and 2.03E-01
same,"POG (GC-MS signal), mean value",[4]; t0+2h,8.34E+05
same,"Ratio POG/IS, mean value",[4]; t0+2h,1.82E-01
same,"POG (GC-MS signal), sample 1-3",[4]; t0+2h,8.11E+05 and 8.75E+05 and 8.15E+05
same,"Ratio POG/IS, sample 1-3",[4]; t0+2h,1.75E-01 and 1.87E-01 and 1.85E-01
same,"POG (GC-MS signal), sample 1-3",[4]; t0,1.17E+06 and 1.06E+06 and 1.09E+06
same,"Ratio POG/IS, sample 1-3",[4]; t0,2.92E-01 and 2.45E-01 and 2.48E-01
CC1CCC2C(C)(C)C3CC12CC1OC13C (stereo not shown) [andrane],activation of OR11A1,"OR11A1 [2]; Example 4, up to 100µM",did not activate
norpatchouli alcohol,EC50,OR11A1 [2],10.7 ± 2.6 µM
same,Potency and efficacy on OR11A1 (comparison between odorants),OR11A1 [2]; Example 4,comparable
same,activation of OR11A1,OR11A1 [2]; [6],able to elicit activation
"CC1(C)CCC[C@]2(O)C(C)(C)[C@H]3CC[C@@]12C3 [Terranol, terranol]",activation of OR11A1,"OR11A1 [2]; Example 4, up to 100µM",did not activate
C[C@]12CCC(=O)C[C@@H]1CC[C@@H]1[C@@H]2CC[C@]2(C)C=CC[C@@H]12 [androstenone],activation of OR7D4,OR7D4,robustly activated
same,response of the 65 olfactory receptors tested,[5],did not respond
